# Measured values published in ChEMBL document CHEMBL1201862, “PubChem BioAssay data set” (2004).
#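 Results reflect a 48-hour exposure of cells in 96-well plates to compound at five concentrations. GI50: concentration for 50% inhibition of growth.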 Calls of active or inactive are those of the source. No stated cut-off is given here; in the data, active = GI50 up to about 1.1 µM and inactive = higher.
# Columns and labels:
# Assay in all cases: DTP human tumour cell line panel, 48 h
# CCRF-CEM = tested on: CCRF-CEM
# HCT-15 = tested on: HCT-15
# HOP-62 = tested on: HOP-62
# Hs-578T = tested on: Hs-578T
# K562 = tested on: K562
# KM12 = tested on: KM12
# LOX IMVI = tested on: LOX IMVI
# M14 = tested on: M14
# OVCAR-3 = tested on: OVCAR-3
# OVCAR-4 = tested on: OVCAR-4
# OVCAR-5 = tested on: OVCAR-5
# PC-3 = tested on: PC-3
# SF-295 = tested on: SF-295
# SK-MEL-2 = tested on: SK-MEL-2
# SK-MEL-5 = tested on: SK-MEL-5
# U-251 = tested on: U-251
# A549 = tested on: A549
# HCC 2998 = tested on: HCC 2998
# SNB-19 = tested on: SNB-19
# UACC-62 = tested on: UACC-62
SMILES,GI50 (CCRF-CEM),GI50 (HCT-15),GI50 (HOP-62),GI50 (Hs-578T),GI50 (K562),GI50 (KM12),GI50 (LOX IMVI),GI50 (M14),GI50 (OVCAR-3),GI50 (OVCAR-4),GI50 (OVCAR-5),GI50 (PC-3),GI50 (SF-295),GI50 (SK-MEL-2),GI50 (SK-MEL-5),GI50 (U-251),GI50 (A549),GI50 (HCC 2998),GI50 (SNB-19),GI50 (UACC-62)
CCOC(=O)Cn1nnc2cc(Nc3c(C)[n+]([O-])c4cc(F)c(OCC)cc4[n+]3[O-])ccc21,> 100 µM (inactive),> 100 µM,27.5 µM (inactive),41.8 µM (inactive),7.16 µM (inactive),> 100 µM (inactive),> 100 µM (inactive),> 100 µM (inactive),> 100 µM (inactive),> 100 µM (inactive),> 100 µM (inactive),> 100 µM (inactive),38.3 µM (inactive),32.4 µM (inactive),> 100 µM (inactive),32.5 µM (inactive),–,–,–,–
N#C/C(=C\c1cc(F)cc(F)c1)c1ccccn1,18.1 µM (inactive),15.4 µM,> 10 µM (inactive),–,15.5 µM (inactive),22.1 µM (inactive),–,25.8 µM (inactive),36.1 µM (inactive),45.8 µM (inactive),28.8 µM (inactive),24.3 µM (inactive),16.3 µM (inactive),22.9 µM (inactive),13.3 µM (inactive),16.8 µM (inactive),28.6 µM (inactive),21.1 µM (inactive),45.6 µM (inactive),45.1 µM (inactive)
O=C(NO)C(=O)Nc1ccc(Cl)cc1[N+](=O)[O-],> 100 µM (inactive),> 100 µM,> 100 µM (inactive),–,> 100 µM (inactive),> 100 µM (inactive),51.9 µM (inactive),> 100 µM (inactive),> 100 µM (inactive),> 100 µM (inactive),> 100 µM (inactive),–,> 100 µM (inactive),> 100 µM (inactive),> 100 µM (inactive),> 100 µM (inactive),> 100 µM (inactive),> 100 µM (inactive),> 100 µM (inactive),> 100 µM (inactive)
COc1ccc(-c2oc3cc(OC(C)=O)cc(OC(C)=O)c3c(=O)c2OC)cc1,18.2 µM (inactive),20.8 µM,18.1 µM (inactive),–,9.77 µM (inactive),–,14.5 µM (inactive),14.5 µM (inactive),15 µM (inactive),–,23.3 µM (inactive),17.9 µM (inactive),15.9 µM (inactive),–,12.4 µM (inactive),14.2 µM (inactive),20.7 µM (inactive),18.3 µM (inactive),19 µM (inactive),4.19 µM (inactive)
CCC(C(=O)c1ccc(OC)c(OC)c1)N(C(=O)C(F)(F)F)C(C)c1ccccc1 (stereo unspecified),> 100 µM (inactive),> 100 µM,> 100 µM (inactive),–,> 100 µM (inactive),–,> 100 µM (inactive),> 100 µM (inactive),> 100 µM (inactive),–,> 100 µM (inactive),> 100 µM (inactive),> 100 µM (inactive),–,> 100 µM (inactive),> 100 µM (inactive),> 100 µM (inactive),> 100 µM (inactive),> 100 µM (inactive),> 100 µM (inactive)
N#C/C(=C/c1ccc[nH]1)P(=O)(O)O,> 100 µM (inactive),> 100 µM,> 100 µM (inactive),–,> 100 µM (inactive),> 100 µM (inactive),> 100 µM (inactive),> 100 µM (inactive),> 100 µM (inactive),> 100 µM (inactive),> 100 µM (inactive),–,> 100 µM (inactive),> 100 µM (inactive),> 100 µM (inactive),> 100 µM (inactive),> 100 µM (inactive),> 100 µM (inactive),> 100 µM (inactive),> 100 µM (inactive)
COc1cc(/C=C(\C)c2ccc3c(c2)OCO3)cc(OC)c1OC,19.8 µM (inactive),26.1 µM,70 µM (inactive),–,10.4 µM (inactive),44.5 µM (inactive),16 µM (inactive),36.7 µM (inactive),34.8 µM (inactive),32.5 µM (inactive),55.3 µM (inactive),–,25.2 µM (inactive),23.4 µM (inactive),11.7 µM (inactive),50.4 µM (inactive),18.5 µM (inactive),25.5 µM (inactive),50.7 µM (inactive),–
N#Cc1c(N)sc2c1-c1ccccc1OC2,12.4 µM (inactive),26.7 µM,46.3 µM (inactive),–,34.2 µM (inactive),38.2 µM (inactive),38.1 µM (inactive),56.5 µM (inactive),22.3 µM (inactive),26.5 µM (inactive),31.6 µM (inactive),32.4 µM (inactive),–,38.5 µM (inactive),45.3 µM (inactive),45.1 µM (inactive),32.4 µM (inactive),26 µM (inactive),30.5 µM (inactive),53.7 µM (inactive)
Cc1cc2oc(-c3ccccc3)c(C)c(=O)c2c2c1OC(C)(C)S2,62.8 µM (inactive),> 100 µM,> 100 µM (inactive),–,30.9 µM (inactive),43.7 µM (inactive),> 100 µM (inactive),> 100 µM (inactive),> 100 µM (inactive),> 100 µM (inactive),> 100 µM (inactive),–,> 100 µM (inactive),> 100 µM (inactive),68.7 µM (inactive),> 100 µM (inactive),90.2 µM (inactive),> 100 µM (inactive),> 100 µM (inactive),> 100 µM (inactive)
CCOC(=O)/C=C/c1nc(C#N)c(N)o1,> 100 µM (inactive),> 100 µM,> 100 µM (inactive),> 100 µM (inactive),> 100 µM (inactive),> 100 µM (inactive),> 100 µM (inactive),> 100 µM (inactive),–,–,> 100 µM (inactive),> 100 µM (inactive),–,> 100 µM (inactive),> 100 µM (inactive),> 100 µM (inactive),> 100 µM (inactive),–,> 100 µM (inactive),> 100 µM (inactive)
O=C(O)COc1ccc(C(=O)/C(SS/C(C(=O)c2ccc(OCC(=O)O)c(Cl)c2Cl)=C2\C=C(c3ccc(Br)cc3)SS2)=C2/C=C(c3ccc(Br)cc3)SS2)c(Cl)c1Cl,3.21 µM (inactive),4.92 µM,12.9 µM (inactive),3.57 µM (inactive),2.92 µM (inactive),8.13 µM (inactive),2.69 µM (inactive),11.1 µM (inactive),3.73 µM (inactive),4.51 µM (inactive),24.8 µM (inactive),–,5.58 µM (inactive),6.61 µM (inactive),11.9 µM (inactive),3.47 µM (inactive),33.9 µM (inactive),10.2 µM (inactive),5.55 µM (inactive),4.55 µM (inactive)
CC1=C2C=CC(=O)C[C@@]2(C)CCC1,> 100 µM (inactive),> 100 µM,> 100 µM (inactive),–,> 100 µM (inactive),> 100 µM (inactive),> 100 µM (inactive),> 100 µM (inactive),> 100 µM (inactive),> 100 µM (inactive),> 100 µM (inactive),–,> 100 µM (inactive),> 100 µM (inactive),> 100 µM (inactive),> 100 µM (inactive),> 100 µM (inactive),> 100 µM (inactive),> 100 µM (inactive),> 100 µM (inactive)
O=C(O)COc1ccc(C(=O)/C(SS/C(C(=O)c2ccc(OCC(=O)O)c(Cl)c2Cl)=C2\C=C(c3ccccc3Cl)SS2)=C2/C=C(c3ccccc3Cl)SS2)c(Cl)c1Cl,13 µM (inactive),21.7 µM,72.1 µM (inactive),–,8.91 µM (inactive),31.2 µM (inactive),9.89 µM (inactive),28.2 µM (inactive),17.9 µM (inactive),19.8 µM (inactive),> 70.3 µM (inactive),–,37.5 µM (inactive),23.2 µM (inactive),18.3 µM (inactive),6.61 µM (inactive),46.8 µM (inactive),57.1 µM (inactive),22.6 µM (inactive),23.1 µM (inactive)
Cc1c(-c2ccccc2)[nH]c2cc(Cl)ccc2c1=O,> 100 µM (inactive),17.2 µM,23 µM (inactive),14.8 µM (inactive),16.4 µM (inactive),0.74 µM (active),89.5 µM (inactive),76.2 µM (inactive),56.9 µM (inactive),22.9 µM (inactive),> 100 µM (inactive),–,–,37.8 µM (inactive),35.1 µM (inactive),25.8 µM (inactive),1.96 µM (inactive),> 100 µM (inactive),52.8 µM (inactive),54.6 µM (inactive)
CC1=CC2=C(C)C3(CC3)[C@@](C)(O)C(=O)C2=C1,> 1 µM (active),0.193 µM,0.146 µM (active),–,> 1 µM (active),0.355 µM (active),0.174 µM (active),0.171 µM (active),0.182 µM (active),0.174 µM (active),0.239 µM (active),–,0.223 µM (active),0.191 µM (active),0.122 µM (active),0.209 µM (active),0.314 µM (active),0.178 µM (active),0.243 µM (active),0.21 µM (active)
CC(=O)OC(C)(C)CCC(=O)[C@](C)(O)[C@H]1[C@H](O)C[C@@]2(C)[C@@H]3CC=C4C(C)=C(OC5OC(CO)C(O)C(O)C5O)C(=O)C[C@@H]4[C@]3(C)C(=O)C[C@]12C (stereo partly specified),> 100 µM (inactive),> 100 µM,> 100 µM (inactive),–,> 100 µM (inactive),> 100 µM (inactive),> 100 µM (inactive),> 100 µM (inactive),> 100 µM (inactive),> 100 µM (inactive),> 100 µM (inactive),> 100 µM (inactive),> 100 µM (inactive),> 100 µM (inactive),> 100 µM (inactive),> 100 µM (inactive),> 100 µM (inactive),> 100 µM (inactive),> 100 µM (inactive),> 100 µM (inactive)
